# According to patent publication US20240210736A1, “MOUSE MYOPIA-INDUCED MODEL AND ENDOPLASMIC RETICULUM STRESS SUPPRESSANT FOR PREVENTING AND SUPPRESSING MYOPIA” (TSUBOTA LABORATORY, INC., priority 2017, published 2024):
# Experiments:
# [1] = test system: mouse myopia-induced model; assay: Mouse myopia-induced model (−30 D minus lens): suppression of myopia induction; details: for difference of variation in refractive value between lens-worn eyes and control eyes / difference of variation in axial length of the eye between lens-worn eyes and control eyes: 50 μM in PBS; for difference of variation in refractive value between lens-worn eyes and control eyes: FIG. 8A right graph; for difference of variation in axial length of the eye between lens-worn eyes and control eyes: FIG. 8B right graph; for refractive value variation of lens-worn myopia-induced eyes vs PBS administered group / axial length of the eye variation of lens-worn myopia-induced eyes vs PBS administered group: three weeks; for refractive value variation of lens-worn myopia-induced eyes vs PBS administered group: FIG. 6 left; for axial length of the eye variation of lens-worn myopia-induced eyes vs PBS administered group: FIG. 6 right
# Protocol: Specifically, the mouse myopia-induced model is prepared as follows. Because it is easier to induce myopia to a juvenile mouse, it is preferable to mount the minus lens as soon as possible after the weaning. A 3-week-old C57BL6J is used here. The mouse is anesthetized with three types-mixed anesthetic of Domitor (Nippon Zenyaku Kogyo Co., Ltd.), Betorphal (Meiji Seika Pharma Co., Ltd.), and Midazolam (Sandoz K. K.). The skull is then opened with scissors. A post 1 is erected in the skull and fixed with dental cement (Super-Bond, Sun Medical Co., Ltd.). The post is threaded to fix an adjusting instrument described later with a nut.
# To induce myopia, −30 diopter (D) minus lens (Rainbow contact, Rainbow Optical Laboratory Co., Ltd.) 2 is mounted on one side, and 0 D lens or only frame 3 is mounted on the other side as a control. A protector 4 having a laterally projected shape is mounted to a frame part in the lower portion of the lens to prevent the mouse from damaging the lens with its forelegs or the like when mounting the lens to the mouse. The protector 4 prevents the mouse from touching the lens, causing no damages on the lens. The protector 4 used here is in the form mounted to the frame part and integrated with it, although it needs not be integrated with the lens as long as the mouse behavior will not damage the lens.
# An adjusting instrument 5 is bonded to a frame part in the upper portion of the lens to adjust the width and angle of the mounted lens in response to the growth of the mouse. The adjusting instrument 5 is folded in a dog leg shape. The adjusting instrument 5 includes one side mounted with the lens and the other side provided with a slot 6 for mounting the adjusting instrument 5 to the post 1 erected in the head. Putting the post 1 over the slot 6 and screwing it with a nut 7 can adhere and fix the adjusting instrument 5 to the skin without compressing the periphery of both eyes of the mouse.
# An adjustment mechanism including three parts of the post 1, the nut 7, and the adjusting instrument 5 can adjust the width and angle to bring the lens to the mouse eye position in response to the growth of the mouse. Further, because the lens is detachable, it is possible to measure the change over time of the axial length of the eye and the refractive value.
# The left eye was worn with only a frame as a control and the right eye was worn with a −30 D lens for three weeks. The refractive value, the axial length of the eye, and the sclera thickness were measured to find the differences between before and after wearing them. The refractive value was measured with a refractometer (Infrared photorefractor for mice, made by Proffesor Schaeffel, University of Tubingen). The axial length of the eye was measured with an SD-OCT (Spectral-Domain Optical Coherence Tomography, Envisu R4310, Bioptigen Inc.). The sclera thickness was measured by obtaining an optical image of a hematoxylin and eosin (HE) stained paraffin piece by an optical microscope (BX53, Olympus Corporation) and then using an imaging software cellSens. The results were analyzed with ANOVA, Turky HSD.
# Then, an analysis was conducted to check for suppression of myopia induction by administration of endoplasmic reticulum stress suppressant. […] Note that only phosphate-buffered saline (PBS) was administered to the control group.
# mouse eye = assay: Induction of myopia by eye drop of endoplasmic reticulum stress inducer; assay type: in vivo, C57BL6J mouse; details: single eye drop, right eye, one week after administration, FIG. 7
# Protocol: Because the endoplasmic reticulum stress suppressant has a suppression effect on myopia induction as describe above, it is considered that the endoplasmic reticulum stress directly participates in myopia induction. Then, an analysis was conducted to check for induction of myopia by administration of an agent for inducing endoplasmic reticulum stress. The subject was a 3-week-old male C57BL6J mouse (n=12). The right eye of the mouse was administered once by eye drop with 50 μg/ml of tunicamycin (Tm) (Sigma-Aldrich Co. LLC) or 10 μM of thapsigargin (TG) (Wako Pure Chemical Industries, Ltd.), and the left eye was administered once by eye drop with PBS (Veh).
# [2] = eye drop once a day, one week, n=3
# [3] = 0.2% solution in PBS, eye drop once a day, n=4
# [4] = 2% solution in PBS, eye drop once a day, n=4
molecule,measurement,setting,value
Cc1cccc(CC(=O)N2CCc3c2ccc(-c2cn(C)c4ncnc(N)c24)c3F)n1 [GSK2656157],difference of variation in refractive value between lens-worn eyes and control eyes,[1]; [2],significant decrease in difference of variation
same,difference of variation in axial length of the eye between lens-worn eyes and control eyes,[1]; [2],significant decrease in difference of variation
Cc1c(O)cccc1C(=O)N[C@@H](CSc1ccccc1)[C@H](O)CN1C[C@H]2CCCC[C@H]2C[C@H]1C(=O)NC(C)(C)C [Nelfinavir],difference of variation in refractive value between lens-worn eyes and control eyes,[1]; [2],significant decrease in difference of variation
same,difference of variation in axial length of the eye between lens-worn eyes and control eyes,[1]; [2],significant decrease in difference of variation
O=S(=O)(N=Cc1c(O)ccc2ccccc12)c1cccs1 [STF-083010],"refractive value variation, lens-worn eye against lens-unworn control eye","[1]; 60 μM in PBS, eye drop once a day, one week, n=3, FIG. 8A",showed significant changes
same,"axial length of the eye variation, lens-worn eye against lens-unworn control eye","[1]; 60 μM in PBS, eye drop once a day, one week, n=3, FIG. 8B",showed significant changes
"C[C@H](CCC(=O)NCCS(=O)(=O)O)[C@H]1CC[C@H]2[C@@H]3[C@@H](O)C[C@@H]4C[C@H](O)CC[C@]4(C)[C@H]3CC[C@]12C [tauroursodeoxycholic acid, Tauroursodeoxycholic acid]","changes in the refractive value, −30 D lens-worn eyes vs only frame-worn eyes","[1]; 100 mg/kg once a day intraperitoneal, one week after wearing the lens, n=4, FIG. 5 left",no differences were recognized between both types of eyes
same,changes in the axial length of the eye of myopia-induced eyes vs PBS administered group,"[1]; 100 mg/kg once a day intraperitoneal, one week after wearing the lens, n=4, FIG. 5 right",significant changes were recognized in the axial length of the eye
C/C=C(/C)C(=O)O[C@H]1C(C)=C2[C@H]([C@@H]1OC(=O)CCCCCCC)[C@@](C)(OC(C)=O)C[C@H](OC(=O)CCC)[C@@]1(O)[C@H]2OC(=O)[C@@]1(C)O [thapsigargin],axial length of the eye variation vs PBS administered eyes (myopia induction),mouse eye; 10 μM,significant differences were recognized
same,refractive value variation vs PBS administered eyes (myopia induction),mouse eye; 10 μM,significant differences were recognized
sodium phenylbutyrate,refractive value variation of lens-worn myopia-induced eyes vs PBS administered group,[1]; [3],showed a tendency to suppress changes
same,axial length of the eye variation of lens-worn myopia-induced eyes vs PBS administered group,[1]; [3],showed a tendency to suppress changes
same,"variation in the refractive value, −30 D lens-worn eyes vs only frame-worn eyes","[1]; 200 mg/kg/day intraperitoneal, day 2 to 21 after wearing the lens, measured on day 21, FIG. 4A",no changes were recognized in the refractive value
same,"changes in the axial length of the eye, minus lens-worn eyes vs only frame-worn eyes","[1]; 200 mg/kg/day intraperitoneal, day 2 to 21 after wearing the lens, measured on day 21, FIG. 4B",no difference was recognized in the extension
same,extension of the normal axial length of the eye associated with the growth,"[1]; 200 mg/kg/day intraperitoneal, one week and three weeks after wearing the lens, FIG. 4C",does not affect the extension of the normal axial length of the eye associated with the growth
same,refractive value variation of lens-worn myopia-induced eyes vs PBS administered group,[1]; [4],significant differences were recognized
same,axial length of the eye variation of lens-worn myopia-induced eyes vs PBS administered group,[1]; [4],significant differences were recognized
tunicamycin,axial length of the eye variation vs PBS administered eyes (myopia induction),mouse eye; 50 μg/ml,significant differences were recognized
same,refractive value variation vs PBS administered eyes (myopia induction),mouse eye; 50 μg/ml,significant differences were recognized
